Publication PMC10647589, “Heterogeneous Cellular Response of Primary and Metastatic Human Gastric Adenocarcinoma Cell Lines to Magnoflorine and Its Additive Interaction with Docetaxel” (International Journal of Molecular Sciences, 2023)

Columns and labels:
Experiment in all cases: MTT assay (viability; isobolographic analysis)
Type in all cases: cell-based
MKN-74 human GC cells = details: MKN-74, 72 h incubation, mean ± SEM
Description: (§1) The human GC cells ACC-201, AGS, MKN-74 and NCI-N87 were placed in 96-well plates and allowed to adhere overnight. On the following day, the growth medium was removed, and the cells were treated with a series of tested MGN and DCT dilutions (2.0–75 and 0.0004–0.0404 µg/mL, respectively) for 72 h at 37 °C. […] Subsequently, a solution of MTT (5 mg/mL) was added to each well, and the cells were further incubated for 3 h at 37 °C. Tetrazolium salt was reduced to violet formazan derivatives via the succinate dehydrogenase of metabolically active cells. Insoluble formazan compounds formed inside the cells were extracted with a sodium dodecyl sulfate buffer (10% SDS in 0.01 N HCl) overnight to achieve a quantitative assessment of the amount produced. The absorbance of the samples was measured at 570 nm using Infinite M200 Pro microplate reader (Tecan, Männedorf, Switzerland). Cell viability was presented as a percentage relative to the untreated control cells.
(§2) Interactions between MGN and DCT analyzed after 72 h in four different GC cell lines (ACC-201, AGS, MKN-74 and NCI-N87) were characterized by means of an isobolographic analysis in the MTT assay. The percentage inhibition of cell viability accompanied by the specific concentrations of the tested substances (MGN and DCT) were transferred to the MS Excel spreadsheet, and the data were computed using the log–probit method. Next, the concentration–response effect graphs for the tested drugs (MGN and DCT) were drawn, and the IC50 values for every tested drug were calculated. The cooperative effect of two concentration–response lines was tested for the MGN and DCT combination, as previously described. The calculations of IC50 values (±SEM) were computed with formulas originally derived from the log–probit method and adapted to the in vitro conditions, as described earlier. The concentration–response lines for MGN and DCT were not parallel, and thus, the isobolographic additivity was illustrated graphically as an area bounded by two (upper and lower) lines of additivity. From the experimentally denoted IC50 values for MGN and DCT in the MTT assay, median additive inhibitory concentrations (IC50add) for the mixture (at the fixed ratio of 1:1 of MGN and DCT) in various cell lines (ACC-201, AGS, MKN-74 and NCI-N87) were calculated, as described previously. More information on isobolographic analysis can be found in the literature.

ACC-201 human GC cells = details: ACC-201, 72 h incubation, mean ± SEM
Description: as §1, §2

AGS human GC cells = details: 72 h incubation, mean ± SEM
Description: as §1, §2

NCI-N87 human GC cells = details: NCI-N87, 72 h incubation, mean ± SEM
Description: as §1, §2

- IC50 (MKN-74 human GC cells): 4.9 ± 2.1 ng/mL
- IC50 (AGS human GC cells): 2.6 ± 1.2 ng/mL
SMILES: CC(=O)O[C@@]12CO[C@@H]1C[C@H](O)[C@@]1(C)C(=O)[C@H](O)C3=C(C)[C@@H](OC(=O)[C@H](O)[C@@H](NC(=O)OC(C)(C)C)c4ccccc4)C[C@@](O)([C@@H](OC(=O)c4ccccc4)[C@H]21)C3(C)C [DCT, docetaxel]
- IC50 (ACC-201 human GC cells): 2.8 ± 0.9 ng/mL
- IC50 (NCI-N87 human GC cells): 9 ± 2.9 ng/mL
